Here are results for 46 compounds from ChEMBL document CHEMBL5512597, “Triazole hybrid compounds: A new frontier in malaria treatment” (Eur J Med Chem, 2023).

Series [1] concerns Plasmodium falciparum. Description: Antimalarial activity against Plasmodium falciparum […] incubated for 48 hrs. It is filed as functional, organism-based.
The test system of series [2] is Plasmodium falciparum. Description: Antimalarial activity against Plasmodium falciparum 3D7 at asexual erythrocytic stage assessed as parasite growth inhibition measured after 24 hrs by [3H]-hypoxanthine incorporation assay. The format is functional, organism-based.
Series [3] deals with Plasmodium falciparum. Description: Antimalarial activity against CQ-resistant Plasmodium falciparum K1. The format is functional, organism-based.
The subject of series [4] is Plasmodium falciparum. The experiment in a line: Antimalarial activity against Plasmodium falciparum 3D7 assessed as inhibition of parasitemia incubated for 72 hrs by fluorescence based assay. The format is functional, organism-based. To be noted: 3D7, 72 h.
Series [5] in a line: Cytotoxicity against human erythrocytes. The format is toxicity, cell-based, Erythrocyte.
In series [6] the test system is Plasmodium falciparum. Description: Antimalarial activity against CQ-resistant Plasmodium falciparum Dd2. The format is functional, organism-based.
For series [7], the system named is Plasmodium falciparum. The experiment in a line: Antiplasmodial activity against CQ-sensitive Plasmodium falciparum F32 Tanzania assessed as parasite growth inhibition incubated for 48 hrs. The format is functional, organism-based.
Series [8] has as its system Plasmodium falciparum. The experiment in a line: Antiplasmodial activity against CQ-sensitive Plasmodium falciparum NF54. It is filed as functional, organism-based.
Series [9] in a line: Cytotoxicity against African green monkey Vero cells. The following applies: chlorocebus sabaeus. The format is toxicity, cell-based.
Series [10] deals with Plasmodium falciparum. The experiment in a line: Antimalarial activity against Plasmodium falciparum 3D7 infected in A+ human erythrocytes assessed as reduction in parasite growth incubated for 72 hrs by SYBR Green I staining based analysis. The format is functional, organism-based. To be noted: 3D7, Erythrocyte.
The subject of series [11] is Plasmodium falciparum. Description: Antimalarial activity against Plasmodium falciparum Dd2 infected in A+ human erythrocytes assessed as reduction in parasite growth incubated for 72 hrs by SYBR Green I staining based analysis. To be noted: Dd2, Erythrocyte. The format is functional, organism-based.
The test system of series [12] is Plasmodium falciparum. Description: Antimalarial activity against Plasmodium falciparum K1 infected in A+ human erythrocytes assessed as reduction in parasite growth incubated for 72 hrs by SYBR Green I staining based analysis. The following applies: K1, Erythrocyte. The format is functional, organism-based.

One may read the IC50 as the concentration that inhibits the measured activity by half. In general, CC50 refers to the concentration at which the toxic effect on the cells reaches its halfway point. What is called EC50 is the midpoint of the concentration-response curve.

≈ marks a conversion by molar mass, not a printed value.

The compound `COc1ccc(-c2cc(-c3c(C)nn(-c4ccccc4)c3-n3cncn3)n3c(n2)nc2ccccc23)cc1` displayed an IC50 in the series with Plasmodium falciparum [1] of 1.45 mg/L (≈ 2.91 µM).

In the series with Plasmodium falciparum [1], `Cc1ccc(-c2cc(-c3c(C)nn(-c4ccccc4)c3-n3cncn3)n3c(n2)nc2ccccc23)cc1` gave an IC50 of 1.5 mg/L (≈ 3.11 µM).

In the case of `O=c1cc(OCc2cn(-c3ccc(S(=O)(=O)N4CCOCC4)cc3)nn2)c2ccccc2o1`, the IC50 in the series with Plasmodium falciparum [2] came to 34.2 µM.

In the series with Plasmodium falciparum [3], `O=C1c2ccccc2C(=O)N1[C@H]1C(=O)N(c2ccc(OCc3cn(Cc4ccccc4)nn3)cc2)[C@@H]1c1ccc(OCc2cn(Cc3ccccc3)nn2)cc1` gave an IC50 of 1.81 µM.

As to `CCOC(=O)c1cn(-c2ccccc2)nn1`, in the series with Plasmodium falciparum [4], the IC50 is 12.8 µM.

With `O=[N+]([O-])c1ccc(Cn2cc(CO)nn2)cc1`, the CC50 in series [5] is > 100 mg/L. In the series on Plasmodium falciparum [6], this compound registered an IC50 of 0.62 mg/L (≈ 2.65 µM).

The compound `Cc1nn(-c2ccccc2)c(-n2cncn2)c1-c1cc(-c2cccs2)nc2nc3ccccc3n12` returned an IC50 with Plasmodium falciparum [1] of 0.83 mg/L (≈ 1.75 µM).

With `NS(=O)(=O)c1ccc(-n2cc(COc3cc(=O)oc4ccccc34)nn2)cc1`, the IC50 with Plasmodium falciparum [2] was 100 µM.

`Cc1nn(-c2ccccc2)c(-n2cncn2)c1-c1cc(-c2ccc(O)cc2)nc2nc3ccccc3n12` had an IC50 in the series with Plasmodium falciparum [1] of 0.054 mg/L (≈ 0.111 µM).

On to `O=C(OCc1cnn(-c2ccccc2)n1)c1ccccc1`, for which the IC50 in the series on Plasmodium falciparum [4] was found to be 27.5 µM.

Regarding `CCOCc1cn(-c2ccc(Cl)cc2)nn1`, the IC50 with Plasmodium falciparum [4] turned out to be 11.7 µM.

For the compound `Cc1cc(C)nc(NS(=O)(=O)c2ccc(-n3cc(COc4cc(=O)oc5ccccc45)nn3)cc2)n1`, the IC50 in the series with Plasmodium falciparum [2] is > 79.4 µM.

On to `CCCCCCCCCCCn1cc(COC2=CC(=O)c3ccccc3C2=O)nn1`, for which the IC50 in the series on Plasmodium falciparum [7] is 17 µM.

Take `CC(=O)c1cccc(-n2cc(COC(=O)[C@@]3(C)CC[C@]4(C)CC[C@]5(C)C(=CC(=O)[C@@H]6[C@@]7(C)CC[C@H](O)C(C)(C)[C@@H]7CC[C@]65C)[C@@H]4C3)nn2)c1`: it took 3.5 µM to reach half-maximal inhibition in the series with Plasmodium falciparum [8] (IC50). The compound also came in with a CC50 in series [9] of 213 µM.

On to `O=C1[C@@H](Oc2ccc(Cl)cc2Cl)[C@@H](c2ccc(OCc3cn(Cc4ccccc4)nn3)cc2)N1c1ccc(OCc2cn(Cc3ccccc3)nn2)cc1`, for which, in the series on Plasmodium falciparum [3], the IC50 is < 0.97 µM.

`CO[C@@H]1C(=O)N(c2ccc(OCc3cn(Cc4ccccc4)nn3)cc2)[C@@H]1c1ccc(OCc2cn(Cc3ccccc3)nn2)cc1` yielded a half-inhibitory concentration (IC50) in the series with Plasmodium falciparum [3] of 0.85 µM.

In the case of `CCCCn1cc(COC2=CC(=O)c3ccccc3C2=O)nn1`, the IC50 with Plasmodium falciparum [7] is 11.2 µM.

Take `O=[N+]([O-])c1ccc(Cn2cc(-c3ccccc3CO)nn2)cc1`: half-maximal cytotoxicity in [5] (CC50) was put at 33.3 mg/L (≈ 107 µM). Besides, in the series on Plasmodium falciparum [6], the IC50 was > 100 mg/L.

As for `Cc1cc(=O)oc2cc(OCc3cn(-c4ccc(S(=O)(=O)N5CCOCC5)cc4)nn3)c(Cl)cc12`, the IC50 with Plasmodium falciparum [2] is 50.4 µM.

On to `O=[N+]([O-])c1ccccc1Cn1cc(CO)nn1`, for which it took 75.5 mg/L (≈ 322 µM) to reach half-maximal cytotoxicity in series [5] (CC50). For the same compound, in the series on Plasmodium falciparum [6], the IC50 was 0.65 mg/L (≈ 2.78 µM).

As for `Cc1c(-c2ccccc2)c2ccc(OCc3cn(-c4ccc(S(N)(=O)=O)cc4)nn3)cc2oc1=O`, in the series with Plasmodium falciparum [2], the IC50 was 3.68 µM.

`O=C1C=C(OCc2cn(-c3ccc(S)cc3)nn2)C(=O)c2ccccc21`: the IC50 in the series with Plasmodium falciparum [7] is > 20 µM.

Regarding `O=[N+]([O-])c1ccc(Cn2cc(-c3ccccc3CBr)nn2)cc1`, the CC50 in [5] was > 100 mg/L. For the same compound, the IC50 in the series with Plasmodium falciparum [6] was > 100 mg/L.

`Cc1ccc(N2C(=O)[C@@H](Oc3ccccc3)[C@H]2c2ccc(OCc3cn(Cc4ccccc4)nn3)cc2)cc1`: the IC50 in the series with Plasmodium falciparum [3] came out at 15.5 µM.

`CC1(C)[C@@H](O)CC[C@]2(C)[C@H]3C(=O)C=C4[C@@H]5C[C@@](C)(C(=O)OCc6cn(-c7ccc([N+](=O)[O-])cc7)nn6)CC[C@]5(C)CC[C@@]4(C)[C@]3(C)CC[C@@H]12` had an IC50 in the series on Plasmodium falciparum [8] of 2.71 µM. In series [9], this compound showed a CC50 of 175 µM.

For the compound `C=CCn1cc(COc2ccc([C@@H]3[C@H](Oc4ccccc4)C(=O)N3c3ccc(C)cc3)cc2)nn1`, the IC50 with Plasmodium falciparum [3] was 8.43 µM.

In turn, `Cc1nn(-c2ccccc2)c(-n2cncn2)c1-c1cc(-c2ccccc2)nc2nc3ccccc3n12` showed an IC50 in the series with Plasmodium falciparum [1] of 1.45 mg/L (≈ 3.09 µM).

Regarding `CC1(C)[C@@H](O)CC[C@]2(C)[C@H]3C(=O)C=C4[C@@H]5C[C@@](C)(C(=O)OCc6cn(-c7ccc(C#N)cc7)nn6)CC[C@]5(C)CC[C@@]4(C)[C@]3(C)CC[C@@H]12`, in the series on Plasmodium falciparum [8], the IC50 was 1.14 µM. Also, the CC50 in series [9] was 190 µM.

As for `CC1(C)[C@@H](O)CC[C@]2(C)[C@H]3C(=O)C=C4[C@@H]5C[C@@](C)(C(=O)OCc6cn(-c7ccc(Cl)cc7)nn6)CC[C@]5(C)CC[C@@]4(C)[C@]3(C)CC[C@@H]12`, inhibition in the series with Plasmodium falciparum [8] was half-maximal at 0.48 µM (IC50). This compound showed a CC50 in series [9] of 391 µM.

In the series on Plasmodium falciparum [8], `CC1(C)[C@@H](O)CC[C@]2(C)[C@H]3C(=O)C=C4[C@@H]5C[C@@](C)(C(=O)OCc6cn(-c7ccc(O)cc7[N+](=O)[O-])nn6)CC[C@]5(C)CC[C@@]4(C)[C@]3(C)CC[C@@H]12` yielded an IC50 of 0.47 µM. Moreover, the 50% cytotoxic concentration (CC50) in [9] is 253 µM.

Turning to `OCc1cn(Cc2ccc(Cl)cc2)nn1`, half-maximal cytotoxicity in series [5] (CC50) was put at 88.6 mg/L (≈ 396 µM). The compound also showed an IC50 with Plasmodium falciparum [6] of 22.1 mg/L (≈ 98.9 µM).

`C[C@H]1[C@H](OC(=O)CCC(=O)O)O[C@@H]2O[C@@]3(C)CC[C@H]4[C@H](C)CC[C@@H]1[C@@]24OO3` [ARTESUNATE]: the values for the EC50 in the series with Plasmodium falciparum [10], in the series on Plasmodium falciparum [11] and in the series with Plasmodium falciparum [12] were 0.0144 µM, 0.0109 µM and 0.0052 µM, respectively. In addition, the CC50 in series [5] was > 100 mg/L. Moreover, inhibition in the series on Plasmodium falciparum [6] was half-maximal at 0.002 mg/L (≈ 0.0052 µM) (IC50).

In the series on Plasmodium falciparum [1], `Cc1nn(-c2ccccc2)c(-n2cncn2)c1C=O` yielded an IC50 of 1.32 mg/L (≈ 5.21 µM).

The compound `O=[N+]([O-])c1cccc(Cn2cc(CO)nn2)c1` had a CC50 in [5] of 87.4 mg/L (≈ 373 µM). Moreover, in the series on Plasmodium falciparum [6], the IC50 amounted to 0.64 mg/L (≈ 2.73 µM).

As to `O=C1[C@@H](Oc2ccccc2)[C@@H](c2ccc(OCc3cn(Cc4ccccc4)nn3)cc2)N1c1ccc(OCc2cn(Cc3ccccc3)nn2)cc1`, the IC50 in the series with Plasmodium falciparum [3] was < 0.97 µM.

Consider `CC(=O)c1ccc(-n2cc(COC(=O)[C@@]3(C)CC[C@]4(C)CC[C@]5(C)C(=CC(=O)[C@@H]6[C@@]7(C)CC[C@H](O)C(C)(C)[C@@H]7CC[C@]65C)[C@@H]4C3)nn2)cc1`, for which the IC50 with Plasmodium falciparum [8] is > 10 µM. Also, the CC50 in series [9] amounted to 226 µM.

`Cc1nn(-c2ccccc2)c(-n2cncn2)c1-c1cc(-c2cc[nH]c2)nc2nc3ccccc3n12` displayed an IC50 in the series with Plasmodium falciparum [1] of 0.092 mg/L (≈ 0.201 µM).

Take `Cc1cc(=O)oc2cc(OCc3cn(-c4ccc(S(N)(=O)=O)cc4)nn3)ccc12`: the IC50 in the series with Plasmodium falciparum [2] stood at 3.64 µM.

As for `Clc1ccc(N/N=C/c2cnn(-c3ccccc3)n2)cc1`, the IC50 with Plasmodium falciparum [4] was 9.29 µM.

Regarding `CC1(C)[C@@H](O)CC[C@]2(C)[C@H]3C(=O)C=C4[C@@H]5C[C@@](C)(C(=O)OCc6cn(-c7ccc(F)cc7)nn6)CC[C@]5(C)CC[C@@]4(C)[C@]3(C)CC[C@@H]12`, the midpoint of inhibition in the series with Plasmodium falciparum [8], the IC50, lay at 8.82 µM. The midpoint of cytotoxicity in [9], the CC50, lay at 226 µM.

Regarding `COc1ccc(N2C(=O)[C@@H](Oc3ccccc3)[C@H]2c2ccc(OCc3cn(Cc4ccccc4)nn3)cc2)cc1OC`, in the series on Plasmodium falciparum [3], the IC50 amounted to 5.14 µM.

`C=CCn1cc(COc2ccc([C@@H]3[C@H](Oc4ccccc4)C(=O)N3c3ccccc3)cc2)nn1` gave an IC50 in the series on Plasmodium falciparum [3] of 6.19 µM.

In the case of `Br.O=[N+]([O-])c1ccc(Cn2cc(-c3ccccc3C[P+](c3ccccc3)(c3ccccc3)c3ccccc3)nn2)cc1`, the CC50 in series [5] was > 100 mg/L. Besides, the IC50 with Plasmodium falciparum [6] was > 100 mg/L.

As to `Cc1cc(C)nc(NS(=O)(=O)c2ccc(-n3cc(COc4cc5oc(=O)cc(C)c5cc4Cl)nn3)cc2)n1`, the IC50 in the series with Plasmodium falciparum [2] worked out at 18.1 µM.

With `O=c1ccc2ccc(OCc3cn(-c4ccc(S(=O)(=O)N5CCOCC5)cc4)nn3)cc2o1`, in the series on Plasmodium falciparum [2], the IC50 is > 85.5 µM.

Turning to `Cc1ccc(-n2cc(COC(=O)[C@@]3(C)CC[C@]4(C)CC[C@]5(C)C(=CC(=O)[C@@H]6[C@@]7(C)CC[C@H](O)C(C)(C)[C@@H]7CC[C@]65C)[C@@H]4C3)nn2)cc1Cl`, the IC50 in the series with Plasmodium falciparum [8] came to 4.03 µM. For the same compound, it took 377 µM to reach half-maximal cytotoxicity in series [9] (CC50).
